{
  "source": "patent US20100015044A1",
  "about": "“Methods and compositions for diagnosis of iga-and igm-mediated kidney diseases” (priority 2005, published 2010)",
  "origin": "cited, not measured here",
  "molecules": {"B1": {"name": "human Fcα/μ receptor: human receptor constitutively expressed on the majority of B-lymphocytes and macrophages (protein, listed as Homo sapiens)", "chain": "MDGEATVKPGEQVPLWTHGWPPDDPSPSFAAGSSFALPQKRPHPRWLWEGSLPSRTHLRAMGTLRPSSPLCWREESSFAAPNSLKGSRLVSGEPGGAVTIQCHYAPSSVNRHQRKYWCRLGPPRWICQTIVSTNQYTHHRYRDRVALTDFPQRGLFVVRLSQLSPDDIGCYLCGIGSENNMLFLSMNLTISAGPASTLPTATPAAGELTMRSYGTASPVANRWTPGTTQTLGQGTAWDTVASTPGTSKTTASAEGRRTPGATRPAAPGTGSWAEGSVKAPAPIPESPPSKSRSMSNTTEGVWEGTRSSVTNRARASKDRREMTTTKADRPREDIEGVRIALDAAKKVLGTIGPPALVSETLAWEILPQATPVSKQQSQGSIGETTPAAGMWTLGTPAADVWITSMEAASGEGSAAGDLDAATGDRGPQATLSQTPAVGPWGPPGKESSVKRATCPGLSTLKEIKVSAVLTQNPHSLLCVSAAQEAERVTLIQMTHFLEVNPQADQLPHVERKMLQDDSLPAGASLTAPERNPGP"}},
  "key": {"IgG": {"tested_on": "IgG", "settings": "transfection studies in leukocytes"}, "murine IgM": {"target": "murine IgM (Mus musculus, UniProt P01872)", "sequence (P01872 whole entry, other chains not shown)": "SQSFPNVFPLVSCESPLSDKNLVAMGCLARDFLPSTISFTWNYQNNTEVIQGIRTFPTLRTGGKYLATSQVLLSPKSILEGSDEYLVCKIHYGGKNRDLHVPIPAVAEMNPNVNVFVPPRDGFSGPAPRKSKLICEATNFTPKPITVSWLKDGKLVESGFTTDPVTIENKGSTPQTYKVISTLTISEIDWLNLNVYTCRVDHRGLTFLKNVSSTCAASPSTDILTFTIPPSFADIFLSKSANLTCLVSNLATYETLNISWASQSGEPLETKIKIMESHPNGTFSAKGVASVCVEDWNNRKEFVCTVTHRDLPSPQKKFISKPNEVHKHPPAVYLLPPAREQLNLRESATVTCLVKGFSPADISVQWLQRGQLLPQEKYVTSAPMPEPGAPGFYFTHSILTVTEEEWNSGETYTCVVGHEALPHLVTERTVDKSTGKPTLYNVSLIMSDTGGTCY", "sequence (P01592 23-159 partner limits assumed, other chains not shown)": "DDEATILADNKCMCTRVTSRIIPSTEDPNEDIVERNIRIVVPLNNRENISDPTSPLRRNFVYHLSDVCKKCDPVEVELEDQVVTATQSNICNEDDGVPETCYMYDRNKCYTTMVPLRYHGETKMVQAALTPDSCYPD"}, "IgM": {"target": "IgM (Homo sapiens, UniProt P01871)", "sequence (P01871 1-433 limits assumed)": "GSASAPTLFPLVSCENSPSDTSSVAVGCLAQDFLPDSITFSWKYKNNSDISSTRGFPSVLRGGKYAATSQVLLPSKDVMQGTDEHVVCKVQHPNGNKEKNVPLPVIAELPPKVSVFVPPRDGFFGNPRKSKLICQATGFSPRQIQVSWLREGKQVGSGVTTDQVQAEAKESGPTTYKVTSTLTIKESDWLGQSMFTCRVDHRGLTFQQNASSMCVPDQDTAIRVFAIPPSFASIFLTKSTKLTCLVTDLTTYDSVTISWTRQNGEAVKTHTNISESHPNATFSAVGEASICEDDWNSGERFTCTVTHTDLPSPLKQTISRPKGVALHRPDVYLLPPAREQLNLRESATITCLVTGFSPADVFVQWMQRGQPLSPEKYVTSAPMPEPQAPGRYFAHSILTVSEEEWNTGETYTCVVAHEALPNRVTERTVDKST", "sequence (P01591 23-159 partner)": "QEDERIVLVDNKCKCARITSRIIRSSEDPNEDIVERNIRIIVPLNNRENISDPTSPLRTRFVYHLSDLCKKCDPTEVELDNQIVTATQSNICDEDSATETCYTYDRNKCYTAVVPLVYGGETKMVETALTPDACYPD"}},
  "data": [
    {"molecule": "FcαR1: human membrane glycoprotein Fc receptor for IgA", "values": [
      {"measurement": "binding to IgG", "setting": "IgG", "value": "does not bind IgG"}
    ]},
    {"molecule": "Sap: 50-residue synthetic peptide including the 29-residue IgA-binding region of Sir22, with C-terminal cysteine (YYALSDAKEEEPRYKALRGENQDLREKERKYQDKIKKLEEKEKNLEKKSC; Sap)", "values": [
      {"measurement": "binding to human IgA", "setting": "human IgA", "value": "specifically binds"}
    ]},
    {"molecule": "YDWIPSSAW (IgM binding peptide) [YDWIPS SAW]", "values": [
      {"measurement": "binding to murine IgM", "setting": "murine IgM", "value": "high affinity"},
      {"measurement": "inhibition of human rheumatoid factor induced agglutination of IgG-coated latex beads", "setting": "human rheumatoid factor", "value": "inhibits"},
      {"measurement": "binding to other immunoglobulins", "setting": "other immunoglobulins", "value": "no binding abilities"}
    ]},
    {"molecule": "B1", "values": [
      {"measurement": "binding to IgA", "setting": "IgA", "value": "intermediate to high affinity"},
      {"measurement": "binding to IgM", "setting": "IgM", "value": "intermediate to high affinity"}
    ]}
  ]
}
